Our source for the RP-LC retention time values is the METLIN SMRT retention time set (Domingo-Almenara et al. 2019).

Each structure is given as a SMILES string.

A short description of this series: gradient 5% acetonitrile 3 min, to 50% in 2 min, to 85% in 15 min, held 3 min, 100 µL/min. The settings on record: column: Zorbax Extend-C18 2.1 x 50 mm; eluents: water / acetonitrile, 0.1% formic acid. Put shortly:
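Retention times of pure standards were taken from adduct peaks that were selected by computer and manually inspected. Over 3 months, mixtures of ~100 molecules were run by HPLC–quadrupole time-of-flight mass spectrometry in positive and negative ionization mode. The Zorbax Extend-C18 column (2.1 × 50 mm, 1.8 μm) ran at 100 μL/min in water and acetonitrile, each containing 0.1% formic acid, with 40 μL dead volume and 900 μL dwell volume.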
Take `O=C(Nc1ccccc1)N1CCC(n2c(-c3ccco3)nc3cccnc32)C1` (centres undefined): the RP-LC retention time was determined as 716 s. `O=C(NCc1ccc(F)cc1)c1cc(-c2ccc(F)cc2)ns1` yielded an RP-LC retention time of 1030 s. With `COc1ccc(Cl)cc1NC(=O)NCCc1cn(C)c2ncccc12`, the RP-LC retention time was determined as 756 s.

`O=C(COc1ccc(F)cc1)N1CC(Oc2cccc(-c3nc(-c4ccccc4)no3)c2)C1` gave an RP-LC retention time of 1190 s.

For the compound `Cc1cccc(NC(=O)C2CCN(S(=O)(=O)c3ccc4c(c3)sc(=O)n4C(C)C)CC2)c1`, the RP-LC retention time was determined as 1010 s. To `O=C(c1ccsc1)N1CCN(Cc2ccc(=O)n(CC3CC3)c2)CC1` belongs 543 s; to `CN(C)c1nc(N)c(C(=O)N=C(N)N)nc1Cl`, 661 s; to `O=c1ccc(-c2ccncc2)nn1CCCNS(=O)(=O)c1cccs1`, 571 s. `O=C(CCCSc1ccc(NC(=O)c2ccc(F)cc2)nn1)NCc1cccs1`: the RP-LC retention time came to 802 s. To `CC(C)N1CCN(C(=O)c2csc(N3CCN(c4ccc(Cl)cc4)CC3)n2)CC1` belongs 706 s; to `CN(C)C(=O)[C@H](O)[C@H](Cc1ccccc1)NC(=O)c1cc2cc(Cl)ccc2[nH]1`, 956 s; to `CN1C(=O)CCc2cc(NS(=O)(=O)Cc3cccc(Cl)c3)ccc21`, 751 s.

Consider `CCCS(=O)(=O)c1nc2ccc(NS(=O)(=O)c3ccc(F)cc3F)cc2s1`, for which the RP-LC retention time came to 934 s. Regarding `O=C(Cc1csc2nc(-c3ccccc3)cn12)Nc1ccccc1`, the RP-LC retention time turned out to be 785 s. In the case of `O=C(NC1CCN(c2cc(-c3ccc(F)cc3)[nH]n2)C1)c1ccc2[nH]ccc2c1` (centres undefined), the RP-LC retention time was determined as 689 s.

Compound `Cc1ccc(N2CC(c3noc(-c4ccncc4)n3)CC2=O)cc1` (centres undefined) gave an RP-LC retention time of 798 s. Take `O=S(=O)(Cc1ccccc1)N1CCC(OCCOc2cccnc2)CC1`: the RP-LC retention time stood at 665 s. As to `Cc1cc(C2CCCN2C(=O)c2c(F)cccc2Cl)no1` (centres undefined), the RP-LC retention time amounted to 773 s. In the case of `Cc1cc(-c2ccc(S(=O)(=O)N3CCC(C(=O)NCC4CC4)CC3)o2)n[nH]1` it was 702 s; in that of `COc1ccc(OC)c(C(C)NC(=O)C2CCCN(c3nccnc3Oc3ccccc3)C2)c1` (centres undefined), 998 s; in that of `COc1ccc(Cl)cc1C(=O)N1CCN(C2=NC=CN3CC(C)N=C23)CC1` (centres undefined), 578 s. For `CSc1ccc(-c2noc(-c3nn(-c4cccc(Br)c4)ccc3=O)n2)cc1`, the RP-LC retention time is 988 s.

`O=C(NCc1ccccc1)C1CCCN(S(=O)(=O)c2c[nH]c(C(=O)N3CCCCCC3)c2)C1` (centres undefined) displayed an RP-LC retention time of 826 s.

Consider `COc1cccc(-c2ccc3nc(N4CCC(C(=O)NC(C)C)CC4)sc3n2)c1`, for which the RP-LC retention time stood at 895 s. To `CS(=O)(=O)c1ccc(Sc2nc3ccccc3s2)c([N+](=O)[O-])c1` belongs 900 s; to `COCC1(O)CCOC2(CCN(Cc3cccc(Cl)c3F)CC2)C1` (centres undefined), 560 s.

Take `CCC(=O)N(C1CCOCC1)C1CCN(Cc2cccc(Br)c2)CC1`: the RP-LC retention time stood at 635 s. In the case of `Cc1ccc2c(c1)OCC(=O)N2CC(=O)NC1CC1`, the RP-LC retention time stood at 701 s. In the case of `COCCNC(=O)NCCn1c(-c2ccc(C)cc2)nc2ccccc21` it was 588 s; in that of `O=C(Cn1nc(N2CCOCC2)c2ccccc2c1=O)Nc1ccc(Cl)cc1F`, 866 s; in that of `CN1C(C(=O)Nc2ccccn2)=C(O)c2sc(Cl)cc2S1(=O)=O`, 793 s. In the case of `O=C(NCCc1ccccc1)N1CCC(c2noc(-c3cnccn3)n2)C1` (centres undefined), the RP-LC retention time is 715 s.

For the compound `CNC(=O)c1cc2c(cn1)[nH]c1ccccc12`, the RP-LC retention time is 706 s. Regarding `O=C(Nc1ccc2c(c1)OCO2)C1CCCN(S(=O)(=O)c2c[nH]c(C(=O)N3CCCC3)c2)C1` (centres undefined), the RP-LC retention time was 747 s. Take `CC(C)c1ccc(-n2nc(N3CCN(C(=O)Cn4ccnc4)CC3)ccc2=O)cc1`: the RP-LC retention time was found to be 731 s. Compound `COc1ccc(-c2cn3ccn(-c4cc(C)cc(C)c4)c(=O)c3n2)cc1OC` gave an RP-LC retention time of 797 s. The compound `Cc1cc(N2CCN(C(=O)Nc3ccccc3C)CC2)nc(N2CCOCC2)n1` came in with an RP-LC retention time of 613 s. Take `O=C(c1ccsc1)N1CC(Oc2ccc(-c3nc(-c4ccccc4)no3)cc2)C1`: the RP-LC retention time came to 1120 s. In turn, `CN1c2cc(F)ccc2C(=O)NC12CCN(C(=O)NCc1ccccc1)CC2` gave an RP-LC retention time of 724 s. `Fc1cccc(-c2noc(-c3cc(N4CCOCC4)nc4ccccc34)n2)c1` had an RP-LC retention time of 1240 s. In turn, `O=C1COc2ccc(S(=O)(=O)N3CCCC3C(=O)N3CCN(c4ccccc4F)CC3)cc2N1` (centres undefined) registered an RP-LC retention time of 790 s. `O=C(NCc1ccccc1)N1CCC(OCc2nc(C3CC3)no2)CC1`: the RP-LC retention time stood at 776 s. In turn, `COc1ccc2[nH]c(=O)c(CCC(=O)N(C)CCc3ccccn3)cc2c1` registered an RP-LC retention time of 578 s.

Compound `O=C(c1cc(-c2ccncc2)nc2ccc(Cl)cc12)N1CCN(c2ccccn2)CC1` showed an RP-LC retention time of 604 s. `Cc1nc(-c2csc(S(=O)(=O)N3CCC(C(=O)NCc4ccccn4)CC3)c2)no1` yielded an RP-LC retention time of 636 s. To `Cc1ccc(S(=O)(=O)Cc2noc(-c3ccc(Br)cc3)n2)cc1` belongs 1030 s. To `Cc1cc(C)n(Cc2ccc(C(=O)N3CCN(c4cc(=O)n(C(C)C)c(=O)n4C(C)C)CC3)o2)n1` belongs 772 s; to `O=C(Cn1cccc1-c1nnc(-c2ccccc2)o1)Nc1ccc(Cl)cc1`, 1030 s; to `Cc1cc(Cl)ccc1S(=O)(=O)N1CCC(OCc2noc(C3CCCO3)n2)CC1` (centres undefined), 1030 s.

The compound `Cc1nc2cccnc2n1CCN1CCN(C(=O)Nc2ccc(F)cc2F)CC1` yielded an RP-LC retention time of 585 s. To `Cc1oc2ncnc(N3CCCCC3)c2c1C(=O)NCCN(Cc1ccco1)C1CCCC1` belongs 845 s; to `O=C(c1cc(Cl)ccc1Cl)N1CCN(c2cc(-c3ccc(F)cc3)[nH]n2)CC1`, 897 s.

Consider `c1ccc(-c2nc(-c3cnccn3)no2)c(OC2CCN(C3CCSCC3)C2)c1` (centres undefined), for which the RP-LC retention time worked out at 653 s.

In the case of `CCS(=O)(=O)N(C1CC1)C1CCOC2(CCN(C(=O)C3CC3)CC2)C1` (centres undefined), the RP-LC retention time amounted to 710 s. For the compound `CC(C)Cn1ccc2c(cc(C(=O)Nc3ccc(C(C)C)cc3)n2C)c1=O`, the RP-LC retention time is 1030 s.

`COc1ccc2[nH]c3c(c2c1)CCN(C(=O)CC(C)C)C31C(=O)N(C)c2ccccc21` (centres undefined) came in with an RP-LC retention time of 888 s. As for `CCN1C(=O)COc2ccc(-c3nc(NC(=O)c4ccccc4Br)sc3C)cc21`, the RP-LC retention time was found to be 1010 s. As for `CCOc1ccccc1NC(=O)C1CC(=O)N(c2n[nH]c3ccccc23)C1` (centres undefined), the RP-LC retention time is 767 s. `COc1ccc(C2Cn3nnc(-c4nc(-c5ccccc5F)no4)c3CO2)cc1` (centres undefined) registered an RP-LC retention time of 1090 s.
